Results: US7632972B2, “Compounds and methods for treatment of cancer and modulation of programmed cell death for melanoma and other cancer cells” (The Board of Trustees of the University of Illionis, priority 2003, dated 2009)

What was measured:
Format in all cases: cell-based, human
[1] = system: OVCAR-4; experiment: NCI 60 cell line screen (SRB), Ovarian Cancer
Excerpt: (§1) The operation of this screen utilizes 60 different human tumor cell lines, representing leukemia, melanoma and cancers of the lung, colon, brain, ovary, breast, prostate, and kidney. The aim is to prioritize for further evaluation, synthetic compounds or natural product samples showing selective growth inhibition or cell killing of particular tumor cell lines. This screen is unique in that the complexity of a 60 cell line dose response produced by a given compound results in a biological response pattern which can be utilized in pattern recognition algorithms. Using these algorithms, it is possible to assign a putative mechanism of action to a test compound, or to determine that the response pattern is unique and not similar to that of any of the standard prototype compounds included in the NCl database (see DTP Overview tab). In addition, following characterization of various cellular molecular targets in the 60 cell lines, it may be possible to select compounds most likely to interact with a specific molecular target.
(§2) The human tumor cell lines of the cancer screening panel are grown in RPMI 1640 medium containing 5% fetal bovine serum and 2 mM L-glutamine. For a typical screening experiment, cells are inoculated into 96 well microtiter plates in 100 μL at plating densities ranging from 5,000 to 40,000 cells/well depending on the doubling time of individual cell lines. After cell inoculation, the microtiter plates are incubated at 37° C., 5% CO2, 95% air and 100% relative humidity for 24 h prior to addition of experimental drugs.
(§3) After 24 h, two plates of each cell line are fixed in situ with TCA, to represent a measurement of the cell population for each cell line at the time of drug addition (Tz). Experimental drugs are solubilized in dimethyl sulfoxide at 400-fold the desired final maximum test concentration and stored frozen prior to use. At the time of drug addition, an aliquot of frozen concentrate is thawed and diluted to twice the desired final maximum test concentration with complete medium containing 50 μg/ml gentamicin. Additional four, 10-fold or ½ log serial dilutions are made to provide a total of five drug concentrations plus control. Aliquots of 100 μl of these different drug dilutions are added to the appropriate microtiter wells already containing 100 μl of medium, resulting in the required final drug concentrations.
(§4) Following drug addition, the plates are incubated for an additional 48 h at 37° C., 5% CO2, 95% air, and 100% relative humidity. For adherent cells, the assay is terminated by the addition of cold TCA. Cells are fixed in situ by the gentle addition of 50 μl of cold 50% (w/v) TCA (final concentration, 10% TCA) and incubated for 60 minutes at 4° C. The supernatant is discarded, and the plates are washed five times with tap water and air dried. Sulforhodamine B (SRB) solution (100 μl) at 0.4% (w/v) in 1% acetic acid is added to each well, and plates are incubated for 10 minutes at room temperature. After staining, unbound dye is removed by washing five times with 1% acetic acid and the plates are air dried. Bound stain is subsequently solubilized with 10 mM trizma base, and the absorbance is read on an automated plate reader at a wavelength of 515 nm. For suspension cells, the methodology is the same except that the assay is terminated by fixing settled cells at the bottom of the wells by gently adding 50 μl of 80% TCA (final concentration, 16% TCA). Using the seven absorbance measurements [time zero, (Tz), control growth, (C), and test growth in the presence of drug at the five concentration levels (Ti)], the percentage growth is calculated at each of the drug concentrations levels. Percentage growth inhibition is calculated as: [(Ti−Tz)/(C−Tz)]×100 for concentrations for which Ti>/=Tz [(Ti−Tz)/Tz]×100 for concentrations for which Ti<Tz.
(§5) Three dose response parameters are calculated for each experimental agent. […]

[2] = system: IGROV1; experiment: NCI 60 cell line screen (SRB), Ovarian Cancer
Excerpt: as §1, §2, §3, §4, §5

[3] = system: SK-OV-3; experiment: NCI 60 cell line screen (SRB), Ovarian Cancer
Excerpt: as §1, §2, §3, §4, §5

[4] = system: OVCAR-3; experiment: NCI 60 cell line screen (SRB), Ovarian Cancer
Excerpt: as §1, §2, §3, §4, §5

[5] = system: OVCAR-8; experiment: NCI 60 cell line screen (SRB), Ovarian Cancer
Excerpt: as §1, §2, §3, §4, §5

[6] = system: OVCAR-5; experiment: NCI 60 cell line screen (SRB), Ovarian Cancer
Excerpt: as §1, §2, §3, §4, §5

[7] = system: SNB-19; experiment: NCI 60 cell line screen (SRB), CNS Cancer
Excerpt: as §1, §2, §3, §4, §5

[8] = system: SNB-75; experiment: NCI 60 cell line screen (SRB), CNS Cancer
Excerpt: as §1, §2, §3, §4, §5

[9] = system: SF-295; experiment: NCI 60 cell line screen (SRB), CNS Cancer
Excerpt: as §1, §2, §3, §4, §5

Structure (SMILES): COc1cccc(CCNC(=O)CC(c2ccccc2)(c2ccccc2)c2ccccc2)c1 [Compound Z3]
- GI50 ([1]; OVCAR-4): > 100 µM
- TGI ([1]; OVCAR-4): >1.00E−04
- Percent Growth ([1]; OVCAR-4, Log10 Concentration −4.0): 92%
- Percent Growth ([1]; OVCAR-4, Log10 Concentration −5.0): 80%
- Percent Growth ([1]; OVCAR-4, Log10 Concentration −6.0): 82%
- Percent Growth ([1]; OVCAR-4, Log10 Concentration −7.0): 106%
- Percent Growth ([1]; OVCAR-4, Log10 Concentration −8.0): 92%
- CC50 ([1]; OVCAR-4, read-out: LC50 (the source's name)): > 100 µM
- TGI ([2]; IGROV1): >1.00E−04
- Percent Growth ([2]; IGROV1, Log10 Concentration −4.0): 10%
- Percent Growth ([2]; IGROV1, Log10 Concentration −5.0): 22%
- Percent Growth ([2]; IGROV1, Log10 Concentration −6.0): 23%
- Percent Growth ([2]; IGROV1, Log10 Concentration −7.0): 63%
- Percent Growth ([2]; IGROV1, Log10 Concentration −8.0): 29%
- CC50 ([2]; IGROV1, read-out: LC50 (the source's name)): > 100 µM
- GI50 ([3]; SK-OV-3): > 100 µM
- TGI ([3]; SK-OV-3): >1.00E−04
- Percent Growth ([3]; SK-OV-3, Log10 Concentration −4.0): 87%
- Percent Growth ([3]; SK-OV-3, Log10 Concentration −5.0): 84%
- Percent Growth ([3]; SK-OV-3, Log10 Concentration −6.0): 97%
- Percent Growth ([3]; SK-OV-3, Log10 Concentration −7.0): 98%
- Percent Growth ([3]; SK-OV-3, Log10 Concentration −8.0): 92%
- CC50 ([3]; SK-OV-3, read-out: LC50 (the source's name)): > 100 µM
- GI50 ([4]; OVCAR-3): 4.77 µM
- TGI ([4]; OVCAR-3): >1.00E−04
- Percent Growth ([4]; OVCAR-3, Log10 Concentration −4.0): 19%
- Percent Growth ([4]; OVCAR-3, Log10 Concentration −5.0): 40%
- Percent Growth ([4]; OVCAR-3, Log10 Concentration −6.0): 71%
- Percent Growth ([4]; OVCAR-3, Log10 Concentration −7.0): 102%
- Percent Growth ([4]; OVCAR-3, Log10 Concentration −8.0): 90%
- CC50 ([4]; OVCAR-3, read-out: LC50 (the source's name)): > 100 µM
- GI50 ([5]; OVCAR-8): 4.98 µM
- TGI ([5]; OVCAR-8): 4.77E−05
- Percent Growth ([5]; OVCAR-8, Log10 Concentration −4.0): −16%
- Percent Growth ([5]; OVCAR-8, Log10 Concentration −5.0): 33%
- Percent Growth ([5]; OVCAR-8, Log10 Concentration −6.0): 88%
- Percent Growth ([5]; OVCAR-8, Log10 Concentration −7.0): 117%
- Percent Growth ([5]; OVCAR-8, Log10 Concentration −8.0): 116%
- CC50 ([5]; OVCAR-8, read-out: LC50 (the source's name)): > 100 µM
- GI50 ([6]; OVCAR-5): 11.7 µM
- TGI ([6]; OVCAR-5): >1.00E−04
- Percent Growth ([6]; OVCAR-5, Log10 Concentration −4.0): 15%
- Percent Growth ([6]; OVCAR-5, Log10 Concentration −5.0): 53%
- Percent Growth ([6]; OVCAR-5, Log10 Concentration −6.0): 83%
- Percent Growth ([6]; OVCAR-5, Log10 Concentration −7.0): 87%
- Percent Growth ([6]; OVCAR-5, Log10 Concentration −8.0): 90%
- CC50 ([6]; OVCAR-5, read-out: LC50 (the source's name)): > 100 µM
- GI50 ([7]; SNB-19): 90.1 µM
- TGI ([7]; SNB-19): >1.00E−04
- Percent Growth ([7]; SNB-19, Log10 Concentration −4.0): 48%
- Percent Growth ([7]; SNB-19, Log10 Concentration −5.0): 92%
- Percent Growth ([7]; SNB-19, Log10 Concentration −6.0): 92%
- Percent Growth ([7]; SNB-19, Log10 Concentration −7.0): 107%
- Percent Growth ([7]; SNB-19, Log10 Concentration −8.0): 97%
- CC50 ([7]; SNB-19, read-out: LC50 (the source's name)): > 100 µM
- GI50 ([8]; SNB-75): > 100 µM
- TGI ([8]; SNB-75): >1.00E−04
- Percent Growth ([8]; SNB-75, Log10 Concentration −4.0): 96%
- Percent Growth ([8]; SNB-75, Log10 Concentration −5.0): 118%
- Percent Growth ([8]; SNB-75, Log10 Concentration −6.0): 113%
- Percent Growth ([8]; SNB-75, Log10 Concentration −7.0): 117%
- Percent Growth ([8]; SNB-75, Log10 Concentration −8.0): 94%
- CC50 ([8]; SNB-75, read-out: LC50 (the source's name)): > 100 µM
- GI50 ([9]; SF-295): 4.36 µM
- TGI ([9]; SF-295): >1.00E−04
- Percent Growth ([9]; SF-295, Log10 Concentration −4.0): 15%
- Percent Growth ([9]; SF-295, Log10 Concentration −5.0): 27%
- Percent Growth ([9]; SF-295, Log10 Concentration −6.0): 91%
- Percent Growth ([9]; SF-295, Log10 Concentration −7.0): 113%
- Percent Growth ([9]; SF-295, Log10 Concentration −8.0): 100%
- CC50 ([9]; SF-295, read-out: LC50 (the source's name)): > 100 µM
